The values that follow are results of earlier work, collected in patent publication US20170296470A1, “TWO SPEED MONOLOTHIC SYSTEM FOR CONTROLLED RELEASE OF DRUGS” (Matripharm Inc., priority 2011, published 2017).

For this data set the following is noted: for numbers needed to harm: one out of N patients likely to suffer a first-time heart attack: patients in the age group of 65 and over; for risk of heart attack increased: patients prescribed the NSAID vs those who had not taken these drugs in the previous three years.

For `CC(C)Cc1ccc(C(C)C(=O)O)cc1` (centres unmarked) [ibuprofen], the “numbers needed to harm: one out of N patients likely to suffer a first-time heart attack” value (“numbers needed to harm: one out” below) is listed as 1005 patients and the “risk of heart attack increased” value is reported as 24%.

For `CS(=O)(=O)c1ccc(C2=C(c3ccccc3)C(=O)OC2)cc1` [rofecoxib], the “numbers needed to harm: one out” value is recorded as 695 patients.

For the compound `O=C(O)Cc1ccccc1Nc1c(Cl)cccc1Cl` [diclofenac], the “numbers needed to harm: one out” value is given as 521 patients and the “risk of heart attack increased” value is given as 55%.
